The source of these data is PubChem BioAssay (NCI).

The structures appear in SMILES notation.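 Cells were grown in 96-well plates and exposed to each compound for 48 hours at five concentrations; endpoints were interpolated linearly between bracketing concentrations, or set to the highest concentration if not reached. GI50 marks 50% less growth. Definition used: TGI = concentration required for complete inhibition of growth.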 A value given as a limit tells only on which side of the number the result lay.

Test systems include HOP-92 NSCLC; NCI-H226 lung; SK-MEL-2 melanoma; HT29 colon; 786-0 renal; A498 renal; OVCAR-4 ovarian; SNB-19 CNS; UACC-257 melanoma; NCI/ADR-RES ovarian.
What all share (assay): inhibition of tumour cell growth, NCI panel, 48 h

Regarding `C=C(CNC(=O)c1ccccc1)c1ccc(C(=O)Nc2ccccc2N)cc1`, the GI50 with HOP-92 NSCLC was 1.15 µM; in the test with NCI-H226 lung, 1.39 µM; in the test on SK-MEL-2 melanoma, 5.2 µM; in the test with HT29 colon, 3.86 µM; in the test on 786-0 renal, 7.55 µM; in the test on A498 renal, 1.37 µM. In addition, the GI50 is 11.6 µM in the test on OVCAR-4 ovarian, 80.2 µM in the test with SNB-19 CNS, 3.62 µM with UACC-257 melanoma and 2.35 µM in the test with NCI/ADR-RES ovarian. Moreover, the TGI is > 100 µM with HOP-92 NSCLC; 7.41 µM in the test on NCI-H226 lung; > 100 µM in the test on SK-MEL-2 melanoma; > 100 µM in the test on HT29 colon; > 100 µM with 786-0 renal; 7.58 µM in the test on A498 renal. For the same compound, the TGI was > 100 µM with OVCAR-4 ovarian, > 100 µM with SNB-19 CNS, 23.6 µM in the test with UACC-257 melanoma and > 100 µM in the test with NCI/ADR-RES ovarian.
Regarding `CCOc1nccc2c1nc(-c1nonc1N)n2CC`, the GI50 in the test with HOP-92 NSCLC was 1.17 µM; with NCI-H226 lung, > 23.1 µM; with SK-MEL-2 melanoma it was > 25 µM; in the test on HT29 colon it was > 25 µM; with 786-0 renal it was > 25 µM; in the test with A498 renal it was 24.5 µM. Further, the GI50 in the test with OVCAR-4 ovarian, with SNB-19 CNS, in the test with UACC-257 melanoma and in the test on NCI/ADR-RES ovarian was > 25 µM throughout. Further, the TGI in the test on HOP-92 NSCLC, with NCI-H226 lung, in the test with SK-MEL-2 melanoma, in the test with HT29 colon, with 786-0 renal and in the test with A498 renal was > 25 µM throughout. Besides, the TGI with OVCAR-4 ovarian, in the test on SNB-19 CNS, in the test on UACC-257 melanoma and with NCI/ADR-RES ovarian was > 25 µM in each case.
